Data: patent US11339160B2, “Imidazole and triazole containing bicyclic compounds as JAK inhibitors” (THERAVANCE BIOPHARMA R&D IP, LLC, priority 2019, dated 2022)

Legend:
[1] = target: JAK3 (Homo sapiens (Human), UniProt P52333); assay: Biochemical JAK3 kinase assay (LanthaScreen); conditions: for JAK3 (pKi)-JAK1 (pKi): selectivity, difference of pKi values
Protocol: (§1) Assay 1: Biochemical JAK and Tyk2 Kinase Assays
(§2) A panel of four LanthaScreen JAK biochemical assays (JAK1, 2, 3 and Tyk2) were carried in a common kinase reaction buffer (50 mM HEPES, pH 7.5, 0.01% Brij-35, 10 mM MgCl2, and 1 mM EGTA). Recombinant GST-tagged JAK enzymes and a GFP-tagged STAT1 peptide substrate were obtained from Life Technologies.
Serially or discretely diluted compounds were pre-incubated with each of the four JAK enzymes and the substrate in white 384-well microplates (Corning) at ambient temperature for 1 h. ATP was subsequently added to initiate the kinase reactions in 10 μL total volume, with 1% DMSO. […] Kinase reactions were allowed to proceed for 1 hour at ambient temperature before a 10 μL preparation of EDTA (10 mM final concentration) and Tb-anti-pSTAT1 (pTyr701) antibody (Life Technologies, 2 nM final concentration) in TR-FRET dilution buffer (Life Technologies) was added. The plates were allowed to incubate at ambient temperature for 1 h before being read on the EnVision reader (Perkin Elmer). Emission ratio signals (520 nm/495 nm) were recorded and utilized to calculate the percent inhibition values based on DMSO and background controls.
(§3) For dose-response analysis, percent inhibition data were plotted vs. compound concentrations, and IC50 values were determined from a 4-parameter robust fit model with the Prism software (GraphPad Software). Results were expressed as pIC50 (negative logarithm of IC50) and subsequently converted to pKi (negative logarithm of dissociation constant, Ki) using the Cheng-Prusoff equation.

[2] = system: IL-2 stimulated STAT5 phosphorylation in CD4+ T cells isolated from murine splenocytes; assay: Inhibition of IL-2 stimulated pSTAT5 in CD4+ T cells isolated from murine splenocytes; assay type: cell-based; conditions: Mus musculus, IL-2 7 ng/ml, read-out: pIC50, inhibition of IL-2 stimulated pSTAT5 (converted)
Protocol: Assay 3: Inhibition of IL-2 Stimulated pSTAT5 in CD4+ T Cells Isolated from Murine Splenocytes
The potency of test compounds for inhibition of interleukin-2 (IL-2) stimulated STAT5 phosphorylation was measured in the CD4+ T cells isolated from murine splenocytes using AlphaLisa. Because IL-2 signals through JAK3, this assay provides a measure of JAK3 cellular potency in mouse.
Phosphorylated STAT5 was measured via the AlphaLISA SureFire Ultra pSTAT5 (Tyr694/699) kit (PerkinElmer).
CD4+ T cells were isolated from murine splenocytes via negative selection on a magnetic column (Miltnyi Biotec) and re-suspended in assay media (phenol red-free DMEM (Life Technologies) supplemented with 10% FBS (ATCC)). Cells were seeded at 50,000 cells/well in assay media (2 μL/well). Compounds were serially diluted in DMSO and diluted to 2× final concentration in assay media. Compound was added (4 μl/well) and the cells incubated at 37° C., 5% CO2 for 1 hour, followed by the addition of IL-2 (R&D Systems; final concentration 7 ng/ml) in pre-warmed assay media (2 μL) for 30 minutes. After cytokine stimulation, cells were lysed with 2 μl of 5× AlphaLisa Lysis Buffer (PerkinElmer). The lysate was shaken at 900 rpm for 10 minutes at room temperature (RT). Phosphorylated STAT5 was measured via the pSTAT5 AlphaLisa kit (PerkinElmer). Freshly prepared acceptor bead mixture was dispensed onto lysate (5 ul) under green filtered <100 lux light. Plates were shaken at 900 rpm for 2 mins, briefly spun down, and incubated for 2 hrs at RT in the dark. Donor beads were dispensed (5 μl) under green filtered <100 lux light. Plates were shaken at 900 rpm for 2 mins, briefly spun down, and incubated overnight at RT in the dark. Luminescence was measured with excitation at 689 nm and emission at 570 nm using an EnVision plate reader (PerkinElmer) under green filtered <100 lux light.
To determine the inhibitory potency of test compounds in response to IL-2, the average emission intensity of beads bound to pSTAT5 was measured in primary CD4+ T cells isolated from murine splenocytes. IC50 values were determined from analysis of the inhibition curves of signal intensity vs compound concentration. Data are expressed as pIC50 (negative decadic logarithm IC50) values (mean standard deviation).

[3] = target: JAK1 (Homo sapiens (Human), UniProt P23458); assay: Biochemical JAK1 kinase assay (LanthaScreen); conditions: 1 h pre-incubation, ATP at Km 25 μM; pKi from pIC50 by Cheng-Prusoff
Protocol: as §1, §2
Serially or discretely diluted compounds were pre-incubated with each of the four JAK enzymes and the substrate in white 384-well microplates (Corning) at ambient temperature for 1 h. ATP was subsequently added to initiate the kinase reactions in 10 μL total volume, with 1% DMSO. […] The plates were allowed to incubate at ambient temperature for 1 h before being read on the EnVision reader (Perkin Elmer). Emission ratio signals (520 nm/495 nm) were recorded and utilized to calculate the percent inhibition values based on DMSO and background controls.
as §3

[4] = system: Caco-2 cell monolayers; assay: Caco-2 permeation assay; conditions: 5 μM, A to B, + Verapamil 25 μM; unit taken from the thresholds in the same block
Protocol: The Caco-2 permeation assay was performed to model the ability of test compounds to pass through the intestine and get into the blood stream after oral administration. The rate at which test compounds in solution permeate a cell monolayer designed to mimic the tight junction of human small intestinal monolayers was determined.
CacoReady 24-well transwell plates were obtained from ADMEcell (Alameda, Calif.). The compounds were evaluated at a concentration of 5 μM from 10 mM DMSO stock solutions in duplicate (n=2). The passive permeability of the compounds tested was evaluated using Caco-2 cell monolayers along with Verapamil (25 μM) to inhibit P-gp transport proteins in the apical to basolateral (A-B) direction. The experiment was conducted in a 37° C., 5% CO2 incubator. Caco-2 culture media consisted of standard filtered DMEM, FCS 10%, L-Glutamine 1% and PenStrep 1%. Basal assay plate was prepared by adding 750 μL of transport buffer to A-B wells. A CacoReady™ plate was prepared by removing the Caco-2 media from the apical wells and replacing with fresh transport media (200 μL repeated for a total of 3 washes). Blank media (200 μL) was then replaced with diluted compound for A-B wells. […] The permeation coefficient (Kp, mean A to B+Verapamil Papparent) in cm/sec was calculated as dQ (flux)/(dt×Area×concentration). […]

[5] = Colon and plasma mouse pharmacokinetics; assay type: in vivo; conditions: male Balb/c mice, 10 mg/kg PO, 0.5, 2 and 6 h
Protocol: Assay 6: Colon and Plasma Mouse Pharmacokinetics
6 male Balb/c mice were administered 10 mg/kg of compound in 1% HPMC+0.1% Tween-80 by PO administration. At 0.5, 2 and 6 hours after dose administration, animals were anesthetized, and terminal blood samples were collected by cardiac puncture, followed by collection of colon contents and colon tissue.
Blood samples were collected into K2EDTA and stored on wet ice until processed to plasma by centrifugation (12,000 rpm at 4° C.). Plasma samples were transferred to cluster tubes and placed on dry ice prior to freezer storage. The colon contents from each animal were collected at each terminal blood collection time point. The colon tissues were flushed with saline and patted dry. The colon and colon content tissues were homogenized using sterile water containing 0.1% formic acid 9:1 (water:tissue, v/w). […] All samples were analyzed using LC/MS/MS against analytical standards.
The composite pharmacokinetic parameters of the compounds were determined by non-compartmental analysis using Phoenix WinNonlin Version 6 (Certara, St. Louis, Mo.) and using mean values from 2 animals/time point. For plasma concentrations below the quantification limit (BQL), the lowest concentration measurable or the BLOQ (below limit of quantification) was used.
A colon to plasma ratio was determined as the ratio of the colon AUC to the plasma AUC.

Sequence of JAK3 (P52333 whole entry): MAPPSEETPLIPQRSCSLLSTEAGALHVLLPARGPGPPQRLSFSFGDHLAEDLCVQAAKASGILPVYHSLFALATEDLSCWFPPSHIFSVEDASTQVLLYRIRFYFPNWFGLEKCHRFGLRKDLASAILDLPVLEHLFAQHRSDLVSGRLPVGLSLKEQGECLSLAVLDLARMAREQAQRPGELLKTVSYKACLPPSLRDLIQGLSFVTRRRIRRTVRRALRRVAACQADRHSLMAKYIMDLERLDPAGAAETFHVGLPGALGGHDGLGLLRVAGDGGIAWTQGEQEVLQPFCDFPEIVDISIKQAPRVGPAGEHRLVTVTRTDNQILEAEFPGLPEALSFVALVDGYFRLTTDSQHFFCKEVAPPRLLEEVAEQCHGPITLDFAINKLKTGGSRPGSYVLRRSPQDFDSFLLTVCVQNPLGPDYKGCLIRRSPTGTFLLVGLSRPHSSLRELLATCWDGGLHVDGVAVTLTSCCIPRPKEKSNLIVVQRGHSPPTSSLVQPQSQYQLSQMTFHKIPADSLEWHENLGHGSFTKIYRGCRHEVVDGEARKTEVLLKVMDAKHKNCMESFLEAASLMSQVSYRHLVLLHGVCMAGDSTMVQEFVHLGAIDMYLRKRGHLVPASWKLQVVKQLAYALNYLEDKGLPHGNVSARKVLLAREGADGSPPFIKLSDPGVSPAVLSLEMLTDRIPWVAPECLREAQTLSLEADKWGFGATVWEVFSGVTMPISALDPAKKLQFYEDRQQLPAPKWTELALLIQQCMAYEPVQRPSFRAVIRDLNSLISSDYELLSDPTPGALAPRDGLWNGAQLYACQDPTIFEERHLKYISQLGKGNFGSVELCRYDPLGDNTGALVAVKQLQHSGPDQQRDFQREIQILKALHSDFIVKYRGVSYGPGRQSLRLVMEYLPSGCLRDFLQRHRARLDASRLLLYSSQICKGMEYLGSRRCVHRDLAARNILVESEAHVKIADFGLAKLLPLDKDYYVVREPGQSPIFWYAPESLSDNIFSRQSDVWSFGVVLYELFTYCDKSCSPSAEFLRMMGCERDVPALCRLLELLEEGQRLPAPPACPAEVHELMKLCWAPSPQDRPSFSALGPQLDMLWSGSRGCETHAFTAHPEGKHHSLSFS
Sequence of JAK1 (P23458 whole entry): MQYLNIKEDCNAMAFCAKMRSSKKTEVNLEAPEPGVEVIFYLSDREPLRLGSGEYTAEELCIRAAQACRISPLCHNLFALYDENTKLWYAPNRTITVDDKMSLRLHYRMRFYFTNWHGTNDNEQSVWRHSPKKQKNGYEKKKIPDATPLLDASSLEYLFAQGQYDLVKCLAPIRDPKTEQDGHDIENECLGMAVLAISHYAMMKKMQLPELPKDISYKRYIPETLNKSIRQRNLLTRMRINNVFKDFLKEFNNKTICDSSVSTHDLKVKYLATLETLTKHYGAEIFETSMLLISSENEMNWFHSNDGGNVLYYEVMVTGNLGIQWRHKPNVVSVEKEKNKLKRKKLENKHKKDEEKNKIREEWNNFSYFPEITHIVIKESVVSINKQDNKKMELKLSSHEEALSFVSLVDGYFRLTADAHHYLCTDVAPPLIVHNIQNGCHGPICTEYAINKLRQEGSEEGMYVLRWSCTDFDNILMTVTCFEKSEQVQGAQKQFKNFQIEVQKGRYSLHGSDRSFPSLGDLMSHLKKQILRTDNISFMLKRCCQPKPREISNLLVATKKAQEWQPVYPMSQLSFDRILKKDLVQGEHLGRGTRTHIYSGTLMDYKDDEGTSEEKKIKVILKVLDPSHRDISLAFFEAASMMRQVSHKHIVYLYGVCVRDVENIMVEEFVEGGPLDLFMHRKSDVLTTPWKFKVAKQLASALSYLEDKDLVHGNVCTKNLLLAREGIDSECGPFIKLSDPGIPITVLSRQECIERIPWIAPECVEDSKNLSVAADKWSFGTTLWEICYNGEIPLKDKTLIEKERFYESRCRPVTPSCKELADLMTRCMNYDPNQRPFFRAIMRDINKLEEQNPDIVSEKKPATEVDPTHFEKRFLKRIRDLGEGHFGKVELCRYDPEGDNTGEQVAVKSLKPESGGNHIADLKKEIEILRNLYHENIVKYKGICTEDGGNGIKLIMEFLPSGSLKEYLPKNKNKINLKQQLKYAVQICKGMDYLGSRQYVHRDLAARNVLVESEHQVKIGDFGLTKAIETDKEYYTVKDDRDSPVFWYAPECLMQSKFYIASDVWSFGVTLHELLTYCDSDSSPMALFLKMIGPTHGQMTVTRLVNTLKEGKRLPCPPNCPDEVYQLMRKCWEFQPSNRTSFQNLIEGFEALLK

Compound	JAK3 (pKi)-JAK1 (pKi) [1]	IC50 [2] [nM]	further results
C=CC(=O)N1CC(COc2cc(-c3ccc(O)c(Cl)c3)cn3cncc23)C1 [Example 12, 1-(3-(((6-(3-chloro-4-hydroxyphenyl)imidazo[1,5-a]pyridin-8-yl)oxy)methyl)azetidin-1-yl)prop-2-en-1-one]	A (a value of 3 or above)	< 1000	–
C=CC(=O)N1CC(COc2cc(-c3cc(Cl)c(O)c(OC)c3)cn3cncc23)C1 [Example 9, 1-(3-(((6-(3-chloro-4-hydroxy-5-methoxyphenyl)imidazo[1,5-a]pyridin-8-yl)oxy)methyl)azetidin-1-yl)prop-2-en-1-one]	A (a value of 3 or above)	< 1000	–
C=CC(=O)N1CC[C@@H](Oc2cc(-c3ccc(O)cc3)cn3cncc23)C[C@H]1C [Example 15, 1-((2R,4R)-4-((6-(4-hydroxyphenyl)imidazo[1,5-a]pyridin-8-yl)oxy)-2-methylpiperidin-1-yl)prop-2-en-1-one]	A (a value of 3 or above)	< 1000	–
C=CC(=O)N1CC(C(C)(C)Oc2cc(-c3ccc(O)cc3)cn3cncc23)C1 [Example 28]	A (a value of 3 or above)	< 1000	–
C=CC(=O)N1CC(COc2cc(-c3c(F)cc(O)cc3F)cn3cncc23)C1 [Example 7, 1-(3-(((6-(2,6-difluoro-4-hydroxyphenyl)imidazo[1,5-a]pyridin-8-yl)oxy)methyl)azetidin-1-yl)prop-2-en-1-one]	A (a value of 3 or above)	< 1000	–
C=CC(=O)N1CCC(N(C)c2cc(-c3ccc(O)cc3)cn3cncc23)CC1 [Example 17]	B (a value of 2.3 to 3)	–	Ki ([1]; 1 h pre-incubation, ATP at Km 1.6 μM, pKi from pIC50 by Cheng-Prusoff, read-out: JAK 3 (pKi) (converted)): 1 to 10 nM; JAK 1 (pKi) [3]: E (a pKi value of 7 or below (Ki of 100 nM or above))
C=CC(=O)N1CC(COc2cc(-c3ccc(O)cc3)cn3cncc23)C1 [Example 11, 1-(3-(((6-(4-hydroxyphenyl)imidazo[1,5-a]pyridin-8-yl)oxy)methyl)azetidin-1-yl)prop-2-en-1-one]	A (a value of 3 or above)	< 1000	–
C=CC(=O)N1C[C@H](Nc2ncnc3[nH]ccc23)CC[C@@H]1C [PF-06651600, 2-propen-1-one, 1-[(2S,5R)-2-methyl-5-(7H-pyrrolo[2,3-d]pyrimidin-4-ylamino)-1-piperidinyl]]	–	–	Kp value [4]: 25 ×10⁻⁶ cm/s; colon to plasma ratio (colon AUC to plasma AUC) [5]: 2.8
C=CC(=O)N1CC(COc2cc(-c3ccc(O)c(F)c3F)cn3cncc23)C1 [Example 8, 1-(3-(((6-(2,3-difluoro-4-hydroxyphenyl)imidazo[1,5-a]pyridin-8-yl)oxy)methyl)azetidin-1-yl)prop-2-en-1-one]	A (a value of 3 or above)	< 1000	–
C=CC(=O)N1CC(COc2cc(-c3cc(F)c(O)c(Cl)c3)cn3cncc23)C1 [Example 31]	A (a value of 3 or above)	< 1000	–
C=CC(=O)N1CC(COc2cc(-c3ccc(O)c(C)c3)cn3cncc23)C1 [Example 34]	A (a value of 3 or above)	< 1000	–
